# Where two headings read alike, the source gives them in different places.
# Molecular target: T1, neuropeptide Y5 receptor (Homo sapiens, UniProt Q15761)
# T1 construct: expressed in transfected cells; host or cells: CHO cells (membranes)
# T1 sequence (Q15761 1-445): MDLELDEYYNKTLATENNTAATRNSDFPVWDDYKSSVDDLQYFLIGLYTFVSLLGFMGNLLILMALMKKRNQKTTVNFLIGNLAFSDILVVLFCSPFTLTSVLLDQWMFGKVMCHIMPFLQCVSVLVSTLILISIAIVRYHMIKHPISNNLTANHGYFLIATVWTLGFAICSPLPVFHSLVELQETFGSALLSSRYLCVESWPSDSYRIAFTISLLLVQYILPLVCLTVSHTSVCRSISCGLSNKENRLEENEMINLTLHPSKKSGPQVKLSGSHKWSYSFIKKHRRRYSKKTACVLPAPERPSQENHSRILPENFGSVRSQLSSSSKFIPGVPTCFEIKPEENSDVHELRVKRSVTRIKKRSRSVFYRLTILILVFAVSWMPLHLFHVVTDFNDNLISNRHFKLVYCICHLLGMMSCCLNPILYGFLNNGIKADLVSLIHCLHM
# Assay: NPY Receptor Binding Assay (125I-peptide YY, CHO cell membranes, neuropeptide Y5 receptor)
# Experimental: Human NPY receptors were expressed in CHO cells. Binding assays were performed in 50 mM HEPES, pH. […] Non-specific binding was determined in the presence of 1 uM NPY. The reaction mixtures were incubated for 90 minutes at 30° C. (NPY1 receptor) or at room temperature (NPY2, NPY4 and NPY5 receptors), then filtered through Millipore MAFC glass fiber filter plates which had been pre-soaked in 0.5% polyethyleneimine. The filters were washed with phosphate-buffered saline, and radioactivity was measured in a Packard TopCount scintillation counter.
# [1] = neuropeptide Y5 receptor binding, 0.1 nM 125I-peptide YY, room temperature, 90 minutes, pH 7.2, r/h Y5, read-out: r/h Y5 Ki
Compound,Ki [1] [nM],Ki [nM]
CCCC(C)(C)Sc1ccc(NC(=O)C(C)(C)N2CCN(c3ccccc3)CC2)cc1 [Example 8D],18,
CCCC(C)(C)Sc1ccc(NC(=O)N(C)C2CCN(S(C)(=O)=O)CC2)cc1 [Example 13A],0.8,
CCCC(C)(C)Sc1ccc(NC(=O)C(C)(C)C)cc1 [Example 1],3,
CN(C)C(=O)Nc1ccc(SC(C)(C)C)cc1 [Example 1M],,152
CCCC(C)(C)Sc1ccc(NC(=O)NC2CCN(C)CC2)cc1 [Example 2Al],697,
CCCC(C)(C)Sc1ccc(NC(=O)N(C)CCCN(C)C)cc1 [Example 2X],50,
CCCCC1(Oc2ccc(NC(=O)N(C)c3ccccc3)cc2)CCCC1 [Example 6N],66,
CCC(C)(C)CCc1ccc(NC(=O)N(C)CCc2ccncc2)cc1 [Example 19],0.4,
CCCC(C)(C)Oc1ccc(NC(=O)CC(C)(C)C)cc1 [Example 6C],668,
CCCC(C)(C)Sc1ccc(NC(=O)C(C)(C)C)cc1F [Example 3],9,
CCCC(C)(C)Oc1ccc(NC(=O)C(C)(C)C)cc1 [Example 6],13,

# From patent US6329395A, “Neuropeptide Y5 receptor antagonists” (Schering Corporation, priority 1999, dated 2001)
